Measured values taken from patent US11286299B2, “Peptides selective for Bcl-2 family proteins” (Massachusetts Institute of Technology, priority 2018, dated 2022).
Read-outs that look alike come from different tables or passages of the source. One block for each substance: values may come before it.

Tests used:
[1] = biological target: T1, Bcl-xL (Homo sapiens, UniProt Q07817); details: cited from earlier work; for Ki: Table X3, previously reported selective peptides, read-out: reported affinity, Bcl-xL
[2] = biological target: T2, Mcl-1 (Homo sapiens, UniProt Q07820); details: cited from earlier work; for Ki: Table X3, previously reported selective peptides, read-out: reported affinity, Mcl-1
[3] = biological target: T3, Bfl-1 (Homo sapiens, UniProt Q16548); details: cited from earlier work
T3 sequence (Q16548 1-151): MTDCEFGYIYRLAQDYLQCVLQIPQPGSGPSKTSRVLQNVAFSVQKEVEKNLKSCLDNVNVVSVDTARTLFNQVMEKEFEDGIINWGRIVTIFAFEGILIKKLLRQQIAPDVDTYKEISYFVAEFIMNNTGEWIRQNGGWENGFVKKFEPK

[4] = biological target: T3, Bfl-1; assay: Competition fluorescence polarization (anisotropy) binding assay; design: Bfl-1 residues 1-151; made in house; host or cells: E. coli
Experimental: (§1) Fluorescence polarization competition binding assay Competition fluorescence polarization experiments were performed as described by Jenson et al. […]. Experiments were performed in triplicate, using the same protein and peptide preparations, and data were fit as described by Foight et al. (20) to a complete competitive binding model (47).

[5] = biological target: T1, Bcl-xL; assay: as above; design: human Bcl-xL residues 1-209; made in house; host or cells: E. coli
Experimental: as §1

[6] = biological target: T2, Mcl-1; assay: as above; design: Mcl-1 residues 172-327; made in house; host or cells: E. coli
Experimental: as §1

[7] = biological target: T3, Bfl-1; assay: Yeast cell-surface display binding (FACS titration); design: Bfl-1 residues 1-151; made in house; host or cells: E. coli; details: for binding to Bfl-1 in yeast display: SORTCERY designs; for reported affinity, Bfl-1: Table X3, this study, Bfl-1 specific peptides, cell-surface measurement, highest concentration tested 1000 nM
From the text: Protein constructs Anti-apoptotic protein constructs used in this work correspond to human Bcl-xL residues 1-209, Mcl-1 residues 172-327 and Bfl-1 residues 1-151, expressed in E. coli and purified as described by Dutta et al. (45).
Cells were filtered and washed 2× in chilled BSS before resuspending the labeled cells in BSS and using a BD FACSAria flow cytometer or a BD FACSCanto and FACSDiva software for cell sorting or analysis.
Crystals were flash frozen in liquid nitrogen.

[8] = tested on: B-ALL cell lines with engineered dependencies on human anti-apoptotic genes (Bfl-1, Mcl-1, Bcl-xL, Bcl-2); assay: Cellular BH3 profiling assay (mitochondrial depolarization, JC-1, permeabilized cells); assay type: cell-based, murine; details: for pro-apoptotic response in dependent cell lines: permeabilized cells, Bfl-1 vs Mcl-1 or Bcl-xL dependent cell lines
Experimental: Cell Culture We used murine p185+ Arf^−/^− B-ALL suspension cell lines with engineered dependencies on the human anti-apoptotic genes (Bfl-1, Mcl-1, Bcl-xL), along with an apoptosis-resistant (Bax^−/−/Bak^−/−) control(51). Cells were grown in Roswell Park Memorial Institute (RPMI) 1640 medium supplemented with 10% (v/v) fetal bovine serum, 2 mM L-glutamine, 100 U/mL penicillin, […] streptomycin, 0.1 mM minimal essential medium nonessential amino acids, 25 mM HEPES and […] β-mercaptoethanol. Cell line authentication was performed by short tandem repeat (STR) analysis. Cell were monitored for mycoplasma contamination using the MycoAlert® Mycoplasma Detection Kit (Lonza, Rockland, Mass., USA).
(§2) Cellular BH3 profiling assay BH3 profiling was adapted from the protocol of Ryan and Letai (32). Peptides were diluted at the desired concentrations in MEB buffer (150 mM Mannitol, 10 mM HEPES-KOH pH 7.5, 50 mM KCl, 0.02 mM EGTA, 0.02 mM EDTA, 0.1% BSA and 5 mM succinate) containing […] oligomycin, […] digitonin, […] and 10 mM 2-mercaptoethanol in 384-well plates. […] Fluorescence emission was measured every 5 min for 3 hr at […] with 525 nm excitation on a Tecan Spark 10M. To produce percent depolarization, the area under the resulting curve was calculated and normalized to the assay controls. […]
as §2, with “Peptides” for “Cellular BH3 profiling assay BH3 profiling was adapted from the protocol of Ryan and Letai (32). Peptides”, “titrated by serial dilution” for “diluted at the desired concentrations”, “HEPES-KOH,” for “HEPES-KOH”, “Succinate)” for “succinate)”, “h” for “hr”
As depicted in FIGS. 7-11, permeabilized cells were contacted with increasing doses of BH3 peptides, ad mitochondria outer membrane permeabilization (MOMP) was monitored using a voltage-sensitive dye (JC-1). […]

[9] = Table X2, 50 nM protein, 25 nM fluoresceinated Bim BH3, SD of three replicates, read-out: Ki, Bfl-1
[10] = Table X3, this study, same values as Table X2, read-out: reported affinity, Bfl-1
[11] = Table X2, 50 nM protein, 25 nM fluoresceinated Bim BH3, SD of three replicates, read-out: Ki, Bcl-xL
[12] = Table X3, this study, same values as Table X2, read-out: reported affinity, Bcl-xL
[13] = Table X2, 50 nM protein, 25 nM fluoresceinated Bim BH3, SD of three replicates, read-out: Ki, Mcl-1
[14] = Table X3, this study, same values as Table X2, read-out: reported affinity, Mcl-1
[15] = fluoresceinated Bim BH3 competitor, as reported by Dutta et al. 2013

T1 sequence (Q07817 1-209): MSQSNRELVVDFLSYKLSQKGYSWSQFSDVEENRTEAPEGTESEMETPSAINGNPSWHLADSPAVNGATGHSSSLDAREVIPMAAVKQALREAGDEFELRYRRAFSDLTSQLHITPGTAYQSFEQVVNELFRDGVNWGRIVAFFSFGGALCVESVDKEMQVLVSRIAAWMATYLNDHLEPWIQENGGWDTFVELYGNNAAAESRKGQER
T2 sequence (Q07820 172-327): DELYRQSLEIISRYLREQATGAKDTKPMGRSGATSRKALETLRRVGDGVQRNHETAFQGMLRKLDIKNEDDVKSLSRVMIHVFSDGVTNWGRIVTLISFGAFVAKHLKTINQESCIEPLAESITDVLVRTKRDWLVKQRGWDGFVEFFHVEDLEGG

Ki [4, 9]: > 4 µM
Substance: Ac-QWLRDVVAELARIADEFHAQYER-NH2 [srt.MX05]

Ki [4, 9]: > 4 µM
Ki [4, 10]: > 4 µM
Ki [5, 11]: 0.0037 ± 0.0003 µM
Ki [6, 13]: > 4 µM
Ki [6, 14]: > 4 µM
Substance: Ac-QPLIWFGAQLRRGADEFAAQRER-NH2 [srt.X7]

Ki [4, 9]: > 4 µM
Substance: Ac-QWLRWVIAELIRIADEFHAQYER-NH2 [srt.MX01]

Ki [6, 13]: > 4 µM
Substance: Ac-QRIIWIAAELRRAADQLDAQIER-NH2 [srt.XF03]

Ki [6, 13]: > 4 µM
Substance: Ac-QRIIWIAAELRRAADELDKQIER-NH2 [srt.XF02]

Ki [4, 9]: > 4 µM
Ki [4, 10]: > 4 µM
Ki [5, 11]: 0.00132 ± 0.00018 µM
Ki [6, 13]: > 4 µM
Ki [6, 14]: > 4 µM
Substance: Ac-QTLIWYGASLRRYADEFAKQRER-NH2 [srt.X1]

The remaining lines, values behind:

Substance: QWVREIAAGLRLAADNVNAQLER [FS1]
Ki [1]: 2400 ± 400 nM
Ki [2]: > 5 µM
Ki ([3]; previously described peptide (ref 25), read-out: Ki for Bfl-1): 15 nM

Substance: Ac-RSELEVVQELVRIGDIVVAYFER-NH2 [srt.M1]
Ki [4, 9]: > 4 µM
Ki [4, 10]: > 4 µM
Ki [5, 11]: > 4 µM
Ki [5, 12]: > 4 µM

Substance: Ac-RRVDEIAQILRRIGDNVTTYIER-NH2 [srt.MF06]
Ki [5, 11]: > 4 µM

Substance: Ac-RSQYEVIQELIRIGDIVLAYFER-NH2 [srt.M9]
Ki [4, 9]: > 4 µM
Ki [4, 10]: > 4 µM
Ki [5, 11]: > 4 µM
Ki [5, 12]: > 4 µM
Ki [6, 13]: 0.0006 ± 0.0003 µM

Substance: (fl)IWIAQELRRIGDEFNAYY [Fluoresceinated Bim]
Kd [1, 15]: 6 ± 1 nM
Kd ([2]; fluoresceinated Bim BH3 competitor, as reported by Dutta et al. 2013, read-out: Kd, Mcl-1): 0.8 ± 0.4 nM
Kd [3, 15]: 4 ± 1 nM

Substance: QWVREIAAGLRRAADDVNAQVER [FS2]
Ki [1]: > 5000 nM
Ki [2]: 3.2 ± 0.3 µM
Kd ([2]; read-out: Kd for Mcl-1): > 3000 nM
Ki ([3]; Table X3, previously reported selective peptides, read-out: reported affinity, Bfl-1): 21 ± 6 nM

Substance: Ac-RRVVQIAAGLRRAGDQLEKYGER-NH2 [srt.F10]
binding to Bfl-1 in the FP competition assay [4]: weakly
binding to Bfl-1 in yeast display [7]: bound Bfl-1 with high affinity in yeast display
reported affinity, Bfl-1 [7]: 3.2 ± 0.4 nM
inhibition of Bfl-1 in the cellular assay relative to peptide FS1 [8]: at least as potently as a previously described peptide
pro-apoptotic response in dependent cell lines [8]: selectively induced a pro-apoptotic response in Bfl-1 dependent cell lines, but not in Mcl-1 or Bcl-xL dependent cell lines

Substance: Ac-QRVVHIAAGLRRTGDQLEAYGER-NH2 [srt.F4]
binding to Bfl-1 in the FP competition assay [4]: undetectably
binding to Bfl-1 in yeast display [7]: bound Bfl-1 with high affinity in yeast display
reported affinity, Bfl-1 [7]: 14 ± 2 nM
pro-apoptotic response in dependent cell lines [8]: selectively induced a pro-apoptotic response in Bfl-1 dependent cell lines, but not in Mcl-1 or Bcl-xL dependent cell lines
